{"source": "patent US20050059626A1", "about": "“Methods of preventing and treating viral infections using immunomodulatory polynucleotide sequences” (priority 2000, published 2005)", "key": {"[1]": {"system": "influenza A/Mississippi (H3N2) virus", "type": "in vivo, mice", "settings": "for Pulmonary virus titer (log10/lung) Mean / Pulmonary virus titer (log10/lung) in mouse no. 1 / Pulmonary virus titer (log10/lung) in mouse no. 2 / Pulmonary virus titer (log10/lung) in mouse no. 3 / Pulmonary virus titer (log10/lung) in mouse no. 4 / Pulmonary virus titer (log10/lung) in mouse no. 5 / Pulmonary virus titer (log10/lung) in mouse no. 6 / Pulmonary virus titer (log10/lung) in mouse no. 7: non-ISS = SEQ ID NO:9"}, "[2]": {"system": "influenza A/Mississippi (H3N2) virus", "type": "in vivo, mice", "settings": "for Pulmonary virus titer (log10/lung) Mean / Pulmonary virus titer (log10/lung) in mouse no. 1 / Pulmonary virus titer (log10/lung) in mouse no. 2 / Pulmonary virus titer (log10/lung) in mouse no. 3 / Pulmonary virus titer (log10/lung) in mouse no. 4 / Pulmonary virus titer (log10/lung) in mouse no. 5: non-ISS = SEQ ID NO:10"}, "[3]": {"system": "HBV", "assay": "Chronic HBV model: serum HBV DNA and HBsAg in STC transgenic mice", "type": "in vivo, STC strain transgenic mice", "procedure": "ISS activity was tested in an animal model of chronic hepatitis. An ISS-containing phosphorothioate oligonucleotide (5′-[…]-3′) (SEQ ID NO:1), was delivered to STC strain transgenic mice, followed by measurement of HBV DNA and HBsAg production.\nSTC line mice were developed at Stanford University by Patricia Marion. The majority of these mice secrete HBV of the Ayw genotype (Galibert et al. (1979) Nature 281:646) to titers of 10^6-8 viral genome equivalents per ml of serum. STC mice were derived from the FVB strain, and were constructed by microinjection of HBV genomic DNA.\nApproximately one month old mice were bled and tested for serum levels of HBsAg, which is predictive of viral DNA titer. A pool of 40 STC mice with approximately equal levels of HBsAg were selected and randomly assigned to four treatment groups of 10 animals each. The groups were treated as follows: • 1. 100 μg of ISS injected subcutaneously, once per week for 3 weeks (days 0, 7, 14) • 2. 100 μg of ISS injected subcutaneously, one injection at day 14 • 3. 100 ng of murine 1L-12 injected intraperitoneally on days 12, 13, and 14. • 4. PBS injected subcutaneously (days 0, 7, 14)\nBlood samples were taken at day 0, 7, 14, 15 (22 hr after last IL-12 injection), 18, 28 and 35. Serum prepared from the blood samples was tested for HBV DNA by quantitative PCR (testing performed under contract by Hepadnavirus Testing, Inc.), and HBsAg using a commercially available EIA kit for HBsAg from Abbott Laboratories. Animals were sacrificed at day 35 and livers were collected for histologic analysis."}, "[4]": {"system": "HSV-1", "assay": "Viral titer from Vero cells pre-treated with oligonucleotide, HSV-1", "type": "cell-based, African Green monkey (Vero cells)", "settings": "for Viral titer, percent of control titer: cells infected with HSV-1", "procedure": "Vero cells, a cell line derived from African Green monkey kidney, were pre-treated with varying concentrations of ISS or non-ISS oligonucleotides for varying times prior to the addition of HSV-1 or HSV-2. Oligonucleotides were used at 1 μg/ml or 10 μg/ml and the cells were incubated with the oligonucleotides for 30 seconds, 10 minutes or 24 hours. Viral titers were calculated as a percent of control titer generated by cells not treated with the oligonucleotides. The data are expressed as percent of control titer."}, "[5]": {"system": "HSV-1", "assay": "Viral titer after pre-treating HSV-1 virus with oligonucleotide, Vero cells", "type": "cell-based, African Green monkey (Vero cells)", "procedure": "(§1) HSV-1 or HSV-2 virus was pre-treated with varying concentrations of ISS or non-ISS oligonucleotides for 10 minutes prior to adding the mixture to plated Vero cells. Oligonucleotides were used at 1 μg/ml or 10 μg/ml. Viral titers were calculated as a percent of control titer generated by cells not treated with the oligonucleotides. The data are expressed as percent of control titer."}, "[6]": {"system": "HSV-2", "assay": "Viral titer after pre-treating HSV-2 virus with oligonucleotide, Vero cells", "type": "cell-based, African Green monkey (Vero cells)", "procedure": "as §1"}, "[7]": {"system": "canine papillomavirus", "assay": "Canine oral papilloma model, time to lesion regression", "type": "in vivo, Beagle puppies", "procedure": "A model of canine oral papilloma was used to test the efficacy of ISS on papilloma. Beagle puppies were inoculated in the bucal mucosa with canine papillomavirus and developing papilloma lesions were monitored daily. Four groups of seven dogs each were treated with differing amount of ISS oligonucleotide (5′-[…]-3′ (SEQ ID NO:1), phosphorothioate backbone). One group received 50 μg ISS twice a week, another group received 500 μg ISS twice a week, the third group received 500 μg ISS one time only at the first signs of papilloma lesion development (injected within the papilloma lesion) and the fourth group (control group) received PBS twice a week. All dogs were monitored daily for the development of lesions and the time to regression."}, "[8]": {"system": "CRPV-E8m", "assay": "Rabbit papilloma model (CRPV-E8m), papilloma geometric mean diameter", "quoted_text": "In another experiment, a mutant of CRPV which induces small papillomas, CRPV-E8m, was used to induce papillomas on five rabbit treatment groups (five rabbits per group). In each animal, papillomas on the left side of the animal received treatments and papillomas on the right side were untreated. Four of the treatment groups received doses between 100 μg and 2000 μg of ISS as intradermal injections per papilloma at several treatment regimes and the fifth group received injections of PBS as control, as outlined below.\nFour papillomas, initiated with CRPV-E8m plasmid DNA, were established on each rabbit. Skin at the site of papilloma initiation was made hyperplastic using a mixture of turpentine and acetone prior to viral DNA administration. The size of papillomas was measured (three dimensions, in mm) and the GMD calculated for each papilloma."}, "[9]": {"settings": "50 μg IN Day 0 shortly before virus, lungs Day 4"}, "[10]": {"settings": "50 μg IN Day −3, virus Day 0, lungs Day 4"}, "[11]": {"settings": "50 μg IP Day −1, virus Day 0, lungs Day 4"}, "[12]": {"settings": "50 μg IP Day −3, virus Day 0, lungs Day 4"}}, "note": "Where two headings read alike, the source gives them in different places.", "data": [{"substance": "5′-TGACTGTGAACGTTCGAGATGA-3′ [SEQ ID NO: 1]", "values": [{"measurement": "Pulmonary virus titer (log10/lung) Mean", "setting": "[1]; [9]", "value": 4.6, "unit": "log10/lung"}, {"measurement": "Pulmonary virus titer (log10/lung) in mouse no. 1", "setting": "[1]; [9]", "value": 4, "unit": "log10/lung"}, {"measurement": "Pulmonary virus titer (log10/lung) in mouse no. 2", "setting": "[1]; [9]", "value": 5.5, "unit": "log10/lung"}, {"measurement": "Pulmonary virus titer (log10/lung) in mouse no. 3", "setting": "[1]; [9]", "value": 5, "unit": "log10/lung"}, {"measurement": "Pulmonary virus titer (log10/lung) in mouse no. 4", "setting": "[1]; [9]", "value": 4.5, "unit": "log10/lung"}, {"measurement": "Pulmonary virus titer (log10/lung) in mouse no. 5", "setting": "[1]; [9]", "value": 4.5, "unit": "log10/lung"}, {"measurement": "Pulmonary virus titer (log10/lung) in mouse no. 6", "setting": "[1]; [9]", "value": 4.5, "unit": "log10/lung"}, {"measurement": "Pulmonary virus titer (log10/lung) in mouse no. 7", "setting": "[1]; [9]", "value": 4.5, "unit": "log10/lung"}, {"measurement": "Pulmonary virus titer (log10/lung) Mean", "setting": "[1]; [10]", "value": 4.7, "unit": "log10/lung"}, {"measurement": "Pulmonary virus titer (log10/lung) in mouse no. 1", "setting": "[1]; [10]", "value": 5.5, "unit": "log10/lung"}, {"measurement": "Pulmonary virus titer (log10/lung) in mouse no. 2", "setting": "[1]; [10]", "value": 4, "unit": "log10/lung"}, {"measurement": "Pulmonary virus titer (log10/lung) in mouse no. 3", "setting": "[1]; [10]", "value": 6, "unit": "log10/lung"}, {"measurement": "Pulmonary virus titer (log10/lung) in mouse no. 4", "setting": "[1]; [10]", "value": 5.5, "unit": "log10/lung"}, {"measurement": "Pulmonary virus titer (log10/lung) in mouse no. 5", "setting": "[1]; [10]", "value": 5, "unit": "log10/lung"}, {"measurement": "Pulmonary virus titer (log10/lung) in mouse no. 6", "setting": "[1]; [10]", "value": 4, "unit": "log10/lung"}, {"measurement": "Pulmonary virus titer (log10/lung) in mouse no. 7", "setting": "[1]; [10]", "value": 3, "unit": "log10/lung"}, {"measurement": "Reduction in influenza virus titer compared to PBS", "setting": "[1]; IN, 50 μg/mouse before viral infection", "value": "fails to cause a satisfactory significant reduction in virus titer"}, {"measurement": "Pulmonary virus titer (log10/lung) Mean", "setting": "[2]; [11]", "value": 6.8, "unit": "log10/lung"}, {"measurement": "Pulmonary virus titer (log10/lung) in mouse no. 1", "setting": "[2]; [11]", "value": 6.3, "unit": "log10/lung"}, {"measurement": "Pulmonary virus titer (log10/lung) in mouse no. 2", "setting": "[2]; [11]", "value": 6.8, "unit": "log10/lung"}, {"measurement": "Pulmonary virus titer (log10/lung) in mouse no. 3", "setting": "[2]; [11]", "value": 7.3, "unit": "log10/lung"}, {"measurement": "Pulmonary virus titer (log10/lung) in mouse no. 4", "setting": "[2]; [11]", "value": 6.8, "unit": "log10/lung"}, {"measurement": "Pulmonary virus titer (log10/lung) in mouse no. 5", "setting": "[2]; [11]", "value": 6.8, "unit": "log10/lung"}, {"measurement": "Pulmonary virus titer (log10/lung) Mean", "setting": "[2]; [12]", "value": 6.9, "unit": "log10/lung"}, {"measurement": "Pulmonary virus titer (log10/lung) in mouse no. 1", "setting": "[2]; [12]", "value": 7.3, "unit": "log10/lung"}, {"measurement": "Pulmonary virus titer (log10/lung) in mouse no. 2", "setting": "[2]; [12]", "value": 5.8, "unit": "log10/lung"}, {"measurement": "Pulmonary virus titer (log10/lung) in mouse no. 3", "setting": "[2]; [12]", "value": 7.3, "unit": "log10/lung"}, {"measurement": "Pulmonary virus titer (log10/lung) in mouse no. 4", "setting": "[2]; [12]", "value": 6.8, "unit": "log10/lung"}, {"measurement": "Pulmonary virus titer (log10/lung) in mouse no. 5", "setting": "[2]; [12]", "value": 7.3, "unit": "log10/lung"}, {"measurement": "Reduction in influenza virus titer compared to PBS", "setting": "[2]; IP, 50 μg/mouse before viral infection", "value": "fails to cause a satisfactory significant reduction in virus titer"}, {"measurement": "Reduction of mean viral DNA titer", "setting": "[3]; Group 2: single SC injection 100 μg at day 14, three days after injection", "value": 90, "unit": "fold"}, {"measurement": "Serum HBsAg levels versus PBS controls", "setting": "[3]; STC mice, 100 μg SC", "value": "trend towards decreased average HBsAg values"}, {"measurement": "Effect on serum HBV DNA viral titer", "setting": "[3]; STC mice, ISS 100 μg SC, murine IL-12 100 ng IP days 12, 13, 14", "value": "effective in reducing viral titer"}, {"measurement": "Effect on viral titers from infected cells", "setting": "[4]; cells incubated with ISS prior to HSV infection in vitro (HSV-1 and HSV-2, Table 12)", "value": "no effect on the viral titers"}, {"measurement": "Viral titer, percent of control titer", "setting": "[4]; cells pre-treated 1 μg/ml, 30 sec", "value": "98% of control titer"}, {"measurement": "Viral titer, percent of control titer", "setting": "[4]; cells pre-treated 1 μg/ml, 10 min", "value": "96% of control titer"}, {"measurement": "Viral titer, percent of control titer", "setting": "[4]; cells pre-treated 1 μg/ml, 24 hr", "value": "89% of control titer"}, {"measurement": "Viral titer, percent of control titer", "setting": "[4]; cells pre-treated 10 μg/ml, 30 sec", "value": "100% of control titer"}, {"measurement": "Viral titer, percent of control titer", "setting": "[4]; cells pre-treated 10 μg/ml, 10 min", "value": "102% of control titer"}, {"measurement": "Viral titer, percent of control titer", "setting": "[4]; cells pre-treated 10 μg/ml, 24 hr", "value": "82% of control titer"}, {"measurement": "Effect on viral titers from infected cells", "setting": "[5]; HSV virus incubated with ISS prior to infecting cells in vitro (HSV-1 and HSV-2, Table 13)", "value": "no effect on the viral titers"}, {"measurement": "Viral titer, percent of control titer", "setting": "[5]; HSV-1 virus pre-treated 10 minutes with 1 μg/ml", "value": "101% of control titer"}, {"measurement": "Viral titer, percent of control titer", "setting": "[5]; HSV-1 virus pre-treated 10 minutes with 10 μg/ml", "value": "109% of control titer"}, {"measurement": "Viral titer, percent of control titer", "setting": "[6]; HSV-2 virus pre-treated 10 minutes with 1 μg/ml", "value": "96% of control titer"}, {"measurement": "Viral titer, percent of control titer", "setting": "[6]; HSV-2 virus pre-treated 10 minutes with 10 μg/ml", "value": "102% of control titer"}, {"measurement": "Average rate of lesion regression", "setting": "[7]; 500 μg one time at first signs of papilloma lesion", "value": "higher average rate of lesion regression than untreated dogs"}, {"measurement": "Average time for rapid regression", "setting": "[7]; 500 μg one time at first signs of papilloma, injected within the lesion", "value": 25.1, "unit": "days"}, {"measurement": "Regression time", "setting": "[7]; other treatment groups: 50 μg or 500 μg twice a week", "value": "did not show a marked difference in regression time"}, {"measurement": "Size of papillomas (GMD), treated versus untreated", "setting": "[8]; Treatment Group C: 500 μg/injection, 1 time/week days 47-86, intradermal", "value": "reduction in the size of the ISS treated papillomas compared to untreated papillomas"}, {"measurement": "Papilloma growth rates, treated versus untreated papillomas", "setting": "[8]; Treatment Groups A, B, D (100 μg 3x/week; 100 μg 1x/week; 2000 μg weeks 7 and 10), intradermal", "value": "Minimal differences"}]}]}
